Data from ChEMBL document CHEMBL3301361, “Experimental in vitro DMPK and physicochemical data on a set of publicly disclosed compounds”.
Converted amounts (≈) assume the structure as drawn. Non-standard residues stand in square brackets, D forms with d. Residues, ends and D or L forms follow the SMILES beside them. Dip = N[C@H](C(=O)O)C(c1ccccc1)c1ccccc1; Chg = N[C@H](C(=O)O)C1CCCCC1; NMeA = CN[C@@H](C)C(=O)O

How the values were obtained:
physchem [1] = conditions: pH 7.4 buffer
in vitro = conditions: human, plasma
physchem [2] = conditions: octan-1-ol/water

| Structure (SMILES) | solubility thermodynamic (physchem [1]) | fraction unbound at 5 h (in vitro; PPB) | logD (physchem [2]; pH 7.4) | fraction unbound at 5 h (in vitro) | logD (physchem [2]; pH 7.4, LogD7.4) |
| --- | --- | --- | --- | --- | --- |
| Cc1ccc(CCNC(=O)c2ccc3sc(CO)nc3c2)cc1 | 16.2 µM (≈ 5.29 µg/mL) | 0.0293 |  |  |  |
| O=C(NO)C1(CS(=O)(=O)c2ccc(Oc3ccc(Cl)cc3)cc2)CCOCC1 [CTS-1027] | 126 µM (≈ 53.6 µg/mL) | 0.02 |  |  |  |
| O=C1COc2ccc(CNC3CCN(CCN4C(=O)COc5ccc(Cl)cc54)CC3)nc2N1 |  |  | 1.33 | 0.072 |  |
| COc1ccc2c(c1)N(CCN1CCC(NCc3ccc4c(n3)NC(=O)CO4)CC1)C(=O)OC2 |  | 0.258 |  |  | 0.5 |
| CCOc1cc2ncc(C(N)=O)c(Nc3ccc(F)cc3F)c2cc1N1CCC(O)CC1 |  | 0.089 |  |  | 2.74 |
| CNC(=O)c1cc(C(=O)c2ccc(Cl)cc2)c(Br)[nH]1 |  | 0.0139 |  |  | 3.1 |
| O=C1COc2ccc(CNC3CCN(CCN4C(=O)COc5ccc(Br)cc54)CC3)nc2N1 |  |  | 1.42 | 0.0262 |  |
| O=C(Cc1ccc(OCc2ccccc2)cc1)NO |  |  | 1.92 | 0.0633 |  |
| COc1ccc(NC(=O)c2ccnc(N)n2)cc1 |  | 0.289 |  |  | 1.72 |
| COc1ccc2ncc(=O)n(CCN3CC[C@@H](NCc4ccc5c(n4)NC(=O)CO5)[C@@H](O)C3)c2c1 |  | 0.0532 |  |  | 0.37 |
| C[C@@H](NC(=O)C1CCCCN1C)c1ccc(Nc2ncc3cc(-c4ccncc4)ccc3n2)cc1 (some centres undefined) |  | 0.0383 |  |  | 3.34 |
| CCN(CC)S(=O)(=O)c1ccc(-c2nnc(SCC(=O)N3CCc4ccccc43)o2)cc1 |  | 0.0035 |  |  | 3.9 |
| CN[C@@H](C)C(=O)N[C@H](C(=O)N[C@H]1CCCCN(Cc2ccccc2)C1)C1CCCCC1 |  | 0.197 |  |  | 2.12 |
| CSc1ccc(N2C(N)=NC(N)=NC2(C)C)cc1 |  | 0.666 |  |  | -0.84 |
| O=C(Nc1ccccc1F)NC1N=C(c2ccccc2)c2ccccc2NC1=O (centres undefined) |  |  | 3.8 | 0.0262 |  |
| CC(=O)N[C@H](C)c1ccc(Nc2ncc3cc(-c4ccncc4)c(C)cc3n2)cc1 |  | 0.0191 |  |  | 3.45 |
| CNC(=O)c1[nH]cnc1C(=O)Nc1ccc(OC)cc1 |  | 0.134 |  |  | 2.2 |
| O=C1COc2ccc(CNC3CCN(CCN4C(=O)COc5ccc(OC(F)(F)F)cc54)CC3)nc2N1 |  |  | 1.82 | 0.0209 |  |
| O=C1[C@@H]2[C@@H]3CC[C@@H](C3)[C@@H]2C(=O)N1[C@H]1CC[C@H](C(=O)Nc2cccc3cccnc23)CC1 |  | 0.016 |  |  | 3.94 |
| O=C(O)CNCCNc1ccc(Cl)c(C(=O)NCC23CC4CC(CC(C4)C2)C3)c1 |  | 0.072 |  |  | 1.94 |
| CN[C@@H](C)C(=O)N[C@H](C(=O)N[C@H]1CCCN(CCc2ccccc2OC)C1)C(C)(C)C |  | 0.258 |  |  | 1.61 |

| Structure (SMILES) | solubility thermodynamic (physchem [1]) | fraction unbound at 5 h (in vitro; PPB) | logD (physchem [2]; pH 7.4) | fraction unbound at 5 h (in vitro) | logD (physchem [2]; pH 7.4, LogD7.4) |
| --- | --- | --- | --- | --- | --- |
| CC(C)Oc1cc(-n2cnc3cnc(N[C@@H](C)c4ncc(F)cn4)nc32)n[nH]1 |  | 0.309 |  |  | 2.41 |
| CNc1c(Br)cnc2[nH]c(-c3ccc(S(C)(=O)=O)cc3)nc12 |  | 0.0477 |  |  | 2.88 |
| Cc1c(N)cccc1Cn1ccc(OCCc2cccs2)cc1=O [CG-400549] |  | 0.0499 |  |  | 2.78 |
| CN[C@@H](C)C(=O)N[C@H](C(=O)N[C@H]1CCCN(CCc2ccccc2)C1)C(C)(C)C |  | 0.506 |  |  | 1.46 |
| C[C@H]1O[C@@H](n2cnc3c(N)nc(OCC4CC45CC5)nc32)[C@H](O)[C@H]1Cl (some centres undefined) |  | 0.0447 |  |  | 3.68 |
| O=C1CN(C(=O)c2ccco2)C(c2ccccc2)c2cc(Cl)ccc2N1 (centres undefined) |  | 0.101 |  |  | 3 |
| CNc1c(C(N)=O)cnc2[nH]c(-c3ccc(OCCN4CCOCC4)cc3)nc12 |  | 0.212 |  |  | 2.14 |
| CC(C(=O)O)c1ccc2oc(-c3ccc(Cl)cc3)nc2c1 (centres undefined) [BENOXAPROFEN] |  | 0.0024 |  |  | 1.3 |
| CN[C@@H](C)C(=O)N[C@H](C(=O)N[C@H]1CCCN(CCc2ccccc2F)C1)C1CCCCC1 |  | 0.262 |  |  | 2.51 |
| O=C(O)c1cn(Cc2ccccc2)c2ccccc12 |  |  | 1.19 | 0.0191 |  |
| CN1CCN(c2cc3c(Nc4ccc(F)cc4F)c(C(N)=O)cnc3cc2F)CC1 |  | 0.244 |  |  | 2.63 |
| O=C(c1cccc(Cc2n[nH]c(=O)c3ccccc23)c1)N1CCOCC1 |  | 0.415 |  |  | 1 |
| CNC1=Nc2ccc(Cl)cc2C(c2ccccc2)=[N+]([O-])C1 [CHLORDIAZEPOXIDE] |  |  | 2.41 | 0.0229 |  |
| Cc1cn([C@H]2CCCN(Cc3ccc(C(=O)O)c(Oc4cccc(C(F)(F)F)c4)c3)C2)c(=O)[nH]c1=O |  | 0.0293 |  |  | -0.38 |
| O=C(CCS(=O)(=O)c1ccc(Br)cc1)NCc1ccc(F)cc1 |  | 0.0428 |  |  | 3.1 |
| N#Cc1ccc2c(c1)NC(=O)C2c1ncnc2cc(OCCCN3CCOCC3)ccc12 (centres undefined) |  | 0.013 |  |  | 2.99 |
| COc1ccc2ncc(=O)n(CCN3CC[C@@H](NCc4ccc5c(n4)NC(=O)CO5)[C@@H](F)C3)c2c1 |  | 0.244 |  |  | 0.83 |
| CC(C)[C@H](NC(=O)C[C@H](NC(=O)/C=C/c1ccccc1)c1ccccc1)C(=O)[C@@H]1C(=O)NC(=O)[C@H]1C |  | 0.016 |  |  | 1.91 |
| CN(C)S(=O)(=O)c1ccc2c(c1)N(CCN1CCC(NCc3ccc4c(n3)NC(=O)CO4)CC1)C(=O)CO2 |  |  | 0.15 | 0.0928 |  |
| CC(=O)Nc1ccc2ccn(-c3cc(NCCCN4CCCC4)n4ncc(C#N)c4n3)c2c1 |  | 0.0676 |  |  | 1.87 |
| COc1cc(Nc2ncc(C)s2)nc(N[C@@H](C)c2ncc(F)cn2)n1 |  | 0.103 |  |  | 2.99 |

| Structure (SMILES) | solubility thermodynamic (physchem [1]) | fraction unbound at 5 h (in vitro; PPB) | logD (physchem [2]; pH 7.4) | fraction unbound at 5 h (in vitro) | logD (physchem [2]; pH 7.4, LogD7.4) |
| --- | --- | --- | --- | --- | --- |
| O=C(NO)C1COC(c2ccc(F)c(C(F)(F)F)c2)=N1 (centres undefined) |  | 0.0836 |  |  | 1.53 |
| O=C1COc2ccc(CNC3CCN(CCN4C(=O)COc5ccc(-c6ccco6)cc54)CC3)nc2N1 |  |  | 2.19 | 0.006 |  |
| CNc1c(Br)cnc2[nH]c(-c3cccc(N)c3)nc12 |  | 0.0988 |  |  | 2.96 |
| CC(C)Nc1nc(NCc2ccccc2)c2sccc2n1 |  |  | 3.9 | 0.0029 |  |
| COc1ccc2ccc(=O)n(CCN3CCC(NCc4cc5c(cn4)OCCO5)CC3)c2n1 |  | 0.314 |  |  | 1.16 |
| COc1cc(Nc2cc(N3CCOCC3)nc(N[C@@H](C)c3ncc(F)cn3)n2)n[nH]1 |  | 0.276 |  |  | 2.18 |
| Clc1ccc(C(c2ccccc2)N2CCNCC2)cc1 (centres undefined) [NORCHLORCYCLIZINE] |  | 0.0581 |  |  | 1.94 |
| C[C@H](CO)Nc1nc(SCc2cccc(F)c2F)nc2[nH]c(N)nc12 |  | 0.0229 |  |  | 3.22 |
| C[C@H](Nc1nc(Nc2ncc(C#N)s2)cc(N2CCOCC2)n1)c1ccc(F)cn1 |  | 0.0594 |  |  | 3.45 |
| C[C@@H](NC1=CC(=O)CNC1)c1ccc(Nc2ncc3cc(-c4ccncc4)ccc3n2)cc1 |  | 0.0358 |  |  | 2.49 |
| COCCNC(=O)c1ccc(Nc2ncc3cc(-c4ccncc4OC)ccc3n2)cc1 |  | 0.002 |  |  | 3.14 |
| COc1ccc(-c2nc3c(OCC4CCNCC4)c(Br)cnc3[nH]2)cc1 |  | 0.134 |  |  | 1.55 |
| C[C@H](Nc1ccc2ncn(-c3cc(C4CC4)[nH]n3)c2n1)c1ncc(F)cn1 |  | 0.212 |  |  | 2.74 |
| COc1cc(Nc2nc(N[C@@H](C)c3ncc(F)cn3)ncc2Br)n[nH]1 |  | 0.124 |  |  | 2.6 |
| COc1cc(OC)c(S(=O)(=O)N(C)c2ccccc2)cc1NC(C)=O |  | 0.179 |  |  | 1.1 |
| Cc1cnc(Nc2cc(N3CCOCC3)nc(N[C@@H](C)c3ncc(F)cn3)n2)s1 |  | 0.0736 |  |  | 2.68 |
| CNc1nc2ccccc2n1Cc1sc2c(c1C(=O)N1CC[C@@H](O)C1)c(=O)n(C)c(=O)n2CC(C)C |  | 0.319 |  |  | 1.61 |
| COc1ccc(-c2nc3c(NCCCNC(=O)C4(CN)CC4)c(Br)cnc3[nH]2)cc1 |  | 0.0293 |  |  | 1.9 |
| CCNC(=O)Nc1nc2cc(-c3cccnc3)ccc2[nH]1 |  | 0.0179 |  |  | 2.34 |
| CN[C@@H](C)C(=O)N[C@H](C(=O)N1CCC[C@H]1C(=O)N[C@H](C(=O)OC)C(c1ccccc1)c1ccccc1)C1CCCCC1 (H-[NMeA][Chg]P[Dip]-OMe) |  | 0.176 |  |  | 2.42 |
